Measurements from patent US9629861B2, “Compositions and methods for treating bacterial infections using ceftaroline” (Forest Laboratories Holdings Limited, priority 2009, dated 2017).
Read-outs that look alike come from different tables or passages of the source.

What was measured:
CYP1A2 = conditions: human hepatocytes
CYP2A6 = target: T1, CYP2A6 (Homo sapiens, UniProt P11509); assay: CYP inhibition in human liver microsomes; assay type: in vitro ADME
T1 construct: In vitro studies in human liver microsomes; from tissue; host or cells: human liver microsomes
T1 sequence (P11509 whole entry): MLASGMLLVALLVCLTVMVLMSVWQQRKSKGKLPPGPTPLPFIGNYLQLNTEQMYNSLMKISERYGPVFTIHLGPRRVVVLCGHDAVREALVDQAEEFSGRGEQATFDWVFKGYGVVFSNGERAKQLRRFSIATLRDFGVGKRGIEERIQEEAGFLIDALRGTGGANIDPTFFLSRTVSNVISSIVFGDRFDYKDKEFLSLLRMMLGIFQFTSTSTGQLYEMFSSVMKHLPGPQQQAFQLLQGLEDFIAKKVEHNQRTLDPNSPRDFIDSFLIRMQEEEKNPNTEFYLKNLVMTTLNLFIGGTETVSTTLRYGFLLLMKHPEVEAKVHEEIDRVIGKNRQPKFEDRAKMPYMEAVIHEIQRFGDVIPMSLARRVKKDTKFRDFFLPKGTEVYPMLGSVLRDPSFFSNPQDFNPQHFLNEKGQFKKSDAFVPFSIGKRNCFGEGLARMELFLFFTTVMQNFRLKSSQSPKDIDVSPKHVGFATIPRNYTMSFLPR

CYP2C9 [1] = target: T2, CYP2C9 (Homo sapiens, UniProt P11712); assay: CYP inhibition in human liver microsomes; assay type: in vitro ADME
T2 construct: In vitro studies in human liver microsomes; from tissue; host or cells: human liver microsomes
T2 sequence (P11712 whole entry): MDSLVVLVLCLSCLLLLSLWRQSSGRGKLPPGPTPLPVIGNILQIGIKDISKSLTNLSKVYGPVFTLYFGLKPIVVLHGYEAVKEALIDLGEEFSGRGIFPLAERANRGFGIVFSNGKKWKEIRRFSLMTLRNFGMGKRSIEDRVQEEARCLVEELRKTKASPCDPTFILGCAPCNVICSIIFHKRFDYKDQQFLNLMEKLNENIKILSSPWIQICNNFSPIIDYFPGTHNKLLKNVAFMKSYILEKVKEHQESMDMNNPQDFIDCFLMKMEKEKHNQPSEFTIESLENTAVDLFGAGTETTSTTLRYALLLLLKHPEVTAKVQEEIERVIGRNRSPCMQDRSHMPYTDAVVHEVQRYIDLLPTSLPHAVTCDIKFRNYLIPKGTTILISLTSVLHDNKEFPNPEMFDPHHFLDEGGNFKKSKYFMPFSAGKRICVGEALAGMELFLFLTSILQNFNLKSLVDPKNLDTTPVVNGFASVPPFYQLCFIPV

[2] = Pharmacokinetics in healthy elderly subjects; assay type: in vivo, human; conditions: healthy elderly (≧65 years); 600 mg IV dose
[3] = Pharmacokinetics of ceftaroline after IV infusion of ceftaroline fosamil in adults with normal renal function; set-up: species or system human; conditions: in vivo
Source text: The standard deviation is shown in brackets.

H. influenzae [4] = assay: Example 5 CAP study, outcome by baseline pathogen; assay type: in vivo
Source text: (§1) Per-pathogen clinical cure rate and favorable microbiological outcome rate at TOC in the mMITTE and ME Populations;

CYP2C9 [5] = assay: CYP induction in human hepatocytes; assay type: in vitro ADME
[6] = Example 5
Protocol: The 600-mg dose of ceftaroline fosamil infused over 60 minutes was split into two infusions in order to maintain the blind. For subjects with moderate renal impairment (30 mL/min<CrCl≦50 mL/min), as estimated by the Cockroft-Gault formula, unblinded pharmacy staff or unblinded study staff could adjust the dose of ceftaroline fosamil to two consecutive 200 mg infusions and readjust dose to two 300 mg infusions when renal function improved (CrCl>50 mL/min). The duration of treatment was between 5 to 7 days.
(§2) All subjects who received any amount of study drug were included in the safety analysis. Safety measures included monitoring for adverse events (AE) up to TOC and serious adverse events (SAE) through LFU; recording vital signs, physical examination, electrocardiogram (ECG), and clinical laboratory findings (clinical chemistry, hematology, and urinalysis), at prespecified times throughout the study.

H. parainfluenzae = assay: Example 4 CAP study, outcome by baseline pathogen; assay type: in vivo
Source text: as §1

[7] = tested on: Community-Acquired Bacterial Pneumonia (CABP); assay: Two Phase 3 studies in CABP, integrated; assay type: in vivo, human; conditions: for Clinical Cure Rate at TOC / Treatment Difference in clinical cure rate at TOC: integrated CABP studies; for Clinical Cure Rate at TOC: after 5 to 7 days of therapy; for Treatment Difference in clinical cure rate at TOC / Weighted treatment difference (95% CI): versus ceftriaxone; for Weighted treatment difference (95% CI): combined CABP studies
Protocol: In both treatment groups of CABP Study 1, two doses of oral clarithromycin (500 mg q12h), were administered as adjunctive therapy starting on Study Day 1. No adjunctive macrolide therapy was used in CABP Study 2. Patients with new or progressive pulmonary infiltrate(s) on chest radiography and clinical signs and symptoms consistent with CABP with the need for hospitalization and IV therapy were enrolled in the studies. Treatment duration was 5 to 7 days. A switch to oral therapy was not allowed. The Modified Intent-to-Treat Efficacy (MITTE) population included all patients who received any amount of study drug according to their randomized treatment group and were in PORT (Pneumonia Outcomes Research Team) Risk Class III or IV.
The primary efficacy endpoint was the clinical response at the Test of Cure (TOC) visit in the co-primary CE and MITTE populations (Table 4). In a subgroup analysis (CE population), the comparative clinical cure rates between the ceftaroline group and the ceftriaxone group were not affected by age, gender, race, ethnicity, or weight.

[8] = Example 4
Protocol: The 600-mg dose of ceftaroline fosamil infused over 60 minutes was split into two infusions in order to maintain the blind. For subjects with moderate renal impairment (30 ml/min<CrCl≦50 ml/min), as estimated by the Cockroft-Gault formula, unblinded pharmacy staff or unblinded study staff could adjust the dose of ceftaroline fosamil to two consecutive 200 mg infusions and readjust dose to two 300 mg infusions when renal function improved (CrCl>50 mL/min). The duration of treatment was between 5 to 7 days.
as §2

H. influenzae [9] = assay: Example 4 CAP study, outcome by baseline pathogen; assay type: in vivo, Haemophilus influenzae
Source text: as §1

CYP1A1 = target: T3, CYP1A1 (Homo sapiens, UniProt P04798); assay: CYP inhibition in human liver microsomes; assay type: in vitro ADME
T3 construct: In vitro studies in human liver microsomes; from tissue; host or cells: human liver microsomes
T3 sequence (P04798 whole entry): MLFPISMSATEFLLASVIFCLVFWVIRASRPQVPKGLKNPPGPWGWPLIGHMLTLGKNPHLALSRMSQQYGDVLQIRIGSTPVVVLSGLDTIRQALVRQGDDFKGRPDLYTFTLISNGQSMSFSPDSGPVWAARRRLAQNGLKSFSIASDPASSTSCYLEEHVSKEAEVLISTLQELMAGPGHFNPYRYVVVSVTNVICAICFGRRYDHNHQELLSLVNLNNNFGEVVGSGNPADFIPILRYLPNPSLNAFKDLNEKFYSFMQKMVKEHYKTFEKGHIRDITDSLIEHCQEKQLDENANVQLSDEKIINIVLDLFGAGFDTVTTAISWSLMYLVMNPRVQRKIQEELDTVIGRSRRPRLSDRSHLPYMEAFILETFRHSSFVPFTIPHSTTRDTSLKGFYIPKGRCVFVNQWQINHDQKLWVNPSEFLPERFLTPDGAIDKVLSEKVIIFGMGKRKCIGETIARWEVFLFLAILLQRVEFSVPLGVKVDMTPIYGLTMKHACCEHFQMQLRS

E. coli = assay: Example 5 CAP study, outcome by baseline pathogen; assay type: in vivo, Escherichia coli
Source text: as §1

MDRSP [10] = assay: Example 4 CAP study, outcome by baseline pathogen; assay type: in vivo, Streptococcus pneumoniae
Source text: as §1

S. pneumoniae [11] = assay: Example 4 CAP study, outcome by baseline pathogen; assay type: in vivo, Streptococcus pneumoniae
Source text: as §1

CYP2B6 = target: T4, CYP2B6 (Homo sapiens, UniProt P20813); assay: CYP inhibition in human liver microsomes; assay type: in vitro ADME
T4 construct: In vitro studies in human liver microsomes; from tissue; host or cells: human liver microsomes
T4 sequence (P20813 whole entry): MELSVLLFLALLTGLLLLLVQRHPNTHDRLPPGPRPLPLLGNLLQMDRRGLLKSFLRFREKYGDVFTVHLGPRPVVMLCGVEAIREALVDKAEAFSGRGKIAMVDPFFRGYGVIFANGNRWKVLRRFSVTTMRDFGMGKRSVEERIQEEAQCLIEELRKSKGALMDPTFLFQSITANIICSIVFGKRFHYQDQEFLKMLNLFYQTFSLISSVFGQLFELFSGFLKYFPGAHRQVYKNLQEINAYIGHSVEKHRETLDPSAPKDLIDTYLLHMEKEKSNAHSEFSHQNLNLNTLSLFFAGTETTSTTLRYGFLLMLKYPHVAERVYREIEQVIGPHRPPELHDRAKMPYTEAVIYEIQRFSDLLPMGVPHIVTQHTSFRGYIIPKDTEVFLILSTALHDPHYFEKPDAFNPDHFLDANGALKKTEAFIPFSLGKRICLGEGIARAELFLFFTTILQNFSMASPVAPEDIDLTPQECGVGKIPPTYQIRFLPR

S. aureus [12] = assay: Example 4 CAP study, outcome by baseline pathogen; assay type: in vivo, Staphylococcus aureus
Source text: as §1

CYP3A4/5 = assay: CYP induction in human hepatocytes; assay type: in vitro ADME
S. aureus [13] = assay: Example 5 CAP study, outcome by baseline pathogen; assay type: in vivo, Staphylococcus aureus
Source text: as §1

CYP2C19 = conditions: human hepatocytes
CYP2C8 = target: T5, CYP2C8 (Homo sapiens, UniProt P10632); assay: CYP inhibition in human liver microsomes; assay type: in vitro ADME
T5 construct: In vitro studies in human liver microsomes; from tissue; host or cells: human liver microsomes
T5 sequence (P10632 whole entry): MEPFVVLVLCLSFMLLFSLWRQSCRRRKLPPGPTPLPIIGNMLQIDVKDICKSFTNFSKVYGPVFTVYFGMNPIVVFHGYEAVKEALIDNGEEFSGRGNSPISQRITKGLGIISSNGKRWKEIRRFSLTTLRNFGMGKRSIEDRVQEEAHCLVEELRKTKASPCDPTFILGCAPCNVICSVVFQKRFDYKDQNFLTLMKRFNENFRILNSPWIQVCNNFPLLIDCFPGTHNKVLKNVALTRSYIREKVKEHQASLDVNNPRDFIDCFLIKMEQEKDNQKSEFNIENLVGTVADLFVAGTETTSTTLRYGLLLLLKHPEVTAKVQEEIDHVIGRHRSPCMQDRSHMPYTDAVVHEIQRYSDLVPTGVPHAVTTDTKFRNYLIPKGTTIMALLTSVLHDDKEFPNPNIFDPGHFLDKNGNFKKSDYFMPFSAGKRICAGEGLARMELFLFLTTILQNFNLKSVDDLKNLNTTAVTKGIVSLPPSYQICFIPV

MDRSP [14] = assay: Example 5 CAP study, outcome by baseline pathogen; assay type: in vivo, Streptococcus pneumoniae
Source text: as §1

S. pneumoniae [15] = assay: Example 5 CAP study, outcome by baseline pathogen; assay type: in vivo, Streptococcus pneumoniae
Source text: as §1

CYP3A4 = target: T6, CYP3A4 (Homo sapiens, UniProt P08684); assay: CYP inhibition in human liver microsomes; assay type: in vitro ADME
T6 construct: In vitro studies in human liver microsomes; from tissue; host or cells: human liver microsomes
T6 sequence (P08684 whole entry): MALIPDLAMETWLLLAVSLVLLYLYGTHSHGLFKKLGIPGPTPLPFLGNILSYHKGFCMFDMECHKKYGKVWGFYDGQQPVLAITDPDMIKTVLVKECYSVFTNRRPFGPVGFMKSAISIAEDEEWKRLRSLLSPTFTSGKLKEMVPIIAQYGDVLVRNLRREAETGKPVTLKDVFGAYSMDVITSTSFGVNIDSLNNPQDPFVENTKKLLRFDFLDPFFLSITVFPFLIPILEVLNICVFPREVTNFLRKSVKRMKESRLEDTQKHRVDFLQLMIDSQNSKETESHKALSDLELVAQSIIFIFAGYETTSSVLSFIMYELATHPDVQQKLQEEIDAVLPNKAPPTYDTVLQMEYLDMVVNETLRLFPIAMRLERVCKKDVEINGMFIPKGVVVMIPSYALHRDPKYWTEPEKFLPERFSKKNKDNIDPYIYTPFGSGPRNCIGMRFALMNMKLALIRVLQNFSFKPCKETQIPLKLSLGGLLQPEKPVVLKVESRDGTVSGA

[16] = human, in vivo
[17] = Safety population, listed as ceftaroline

With CCO/N=C(\C(=O)N[C@@H]1C(=O)N2C(C(=O)[O-])=C(Sc3nc(-c4cc[n+](C)cc4)cs3)CS[C@H]12)c1nsc(N)n1 [Ceftaroline] the “induction of CYP1A2” value (CYP1A2) was “not inducers”, the “inhibition of CYP2A6” value (CYP2A6) was “neither ceftaroline fosamil nor ceftaroline inhibits” and the “inhibition of CYP2C9” value (CYP2C9 [1]) was “neither ceftaroline fosamil nor ceftaroline inhibits”. For the same molecule, the “Cmax, elderly versus younger subjects” value [2] was “not significantly different”, the CL/Fm ([3]; human) was 9.58 (1.85) L/h and the “mean plasma terminal elimination half-life” value ([3]; human) was “approximately 2.5 hours”. For the same molecule, the “Cmax and AUC versus dose” value [3] was “increased approximately in proportion to increases in dose”, the “Favorable Microbiological Outcome at TOC by Baseline Pathogen” value (shortened to “Favorable Microbiological Outcome at TOC”) (H. influenzae [4]; ME) was 2/3 (66.7) % and the “Clinical Cure Rate at the TOC Visit by Baseline Pathogen” value (from here on “Clinical Cure Rate at the TOC Visit”) (H. influenzae [4]; ME population) was 2/3 (66.7) %. The “induction of CYP2C9” value (CYP2C9 [5]) was “not inducers”, the “TEAEs leading to premature discontinuation from study drug administration” value [6] was 3.7% and the “subjects with SAEs considered possibly or probably related to study drug” value [6] was 2 subjects. The “Early withdrawal from study, reason Adverse Event” value ([6]; MITTE population) was 5 (1.7) %, the “Any AE (TEAE), subjects” value ([6]; Safety population) was 119 (39.9) % and the “Constipation, subjects” value ([6]; Safety population) was 7 (2.3) %. The “Diarrhea, subjects” value ([6]; Safety population) was 14 (4.7) %, the “Headache, subjects” value ([6]; Safety population) was 10 (3.4) % and the “Hypertension, subjects” value ([6]; Safety population) was 6 (2.0) %. For the same molecule, the “Hypokalemia, subjects” value ([6]; Safety population) was 4 (1.3) %, the “Insomnia, subjects” value ([6]; Safety population) was 9 (3.0) % and the “Nausea, subjects” value ([6]; Safety population) was 8 ( 2.7) %. The “Phlebitis, subjects” value ([6]; Safety population) was 7 (2.3) %, the “Any AE (TEAE), subjects” value [6, 17] was 39.9% and the “Diarrhea, subjects” value [6, 17] was 4.7%. The “Headache, subjects” value [6, 17] was 3.4%, the “Favorable Microbiological Outcome at TOC” value (H. parainfluenzae; ME) was 9/9 (100.0) % and the “Clinical Cure Rate at the TOC Visit” value (H. parainfluenzae; ME population) was 9/9 (100.0) %. The “Clinical Cure Rate at TOC” value ([7]; CE population) was 387/459 (84.3) %, the “Clinical Cure Rate at TOC” value ([7]; MITTE population) was 479/580 (82.6) % and the “Treatment Difference in clinical cure rate at TOC” value (“Treatment Difference … at TOC” below) ([7]; CE) was 6.7 (1.6, 11.8) %. The “Treatment Difference … at TOC” value ([7]; CE, listed as ceftaroline) was 6.7%, the “Weighted treatment difference (95% CI)” value ([7]; ME) was 9.7 (0.7, 18.8) % and the “Weighted treatment difference (95% CI)” value ([7]; ME, listed as ceftaroline) was 9.7%. The “Treatment Difference … at TOC” value ([7]; MITTE) was 6.0 (1.4, 10.7) %, the “Weighted treatment difference (95% CI)” value ([7]; mMITTE) was 8.7 (−0.0, 17.4) % and the “Weighted treatment difference (95% CI)” value ([7]; mMITTE, listed as ceftaroline) was 8.7%. The “TEAEs leading to premature discontinuation from study drug administration” value [8] was 0.6%, the “any study-drug-related TEAEs, subjects” value [8] was 12.4% and the “study-drug-related TEAE: headache” value [8] was 0.6%. The “Early withdrawal from study, reason Adverse Event” value ([8]; MITTE population) was 8 (2.8) %, the “Any AE (TEAE), subjects” value ([8]; Safety population) was 169 (53.7) % and the “COPD, subjects” value ([8]; Safety population) was 8 (2.5) %. The “Diarrhea, subjects” value ([8]; Safety population) was 12 (3.8) %, the “Headache, subjects” value ([8]; Safety population) was 11 (3.5) % and the “Hypertension, subjects” value ([8]; Safety population) was 8 (2.5) %. For the same molecule, the “Hypokalemia, subjects” value ([8]; Safety population) was 10 (3.2) %, the “Insomnia, subjects” value ([8]; Safety population) was 10 (3.2) % and the “Nausea, subjects” value ([8]; Safety population) was 6 ( 1.9) %. The “Phlebitis, subjects” value ([8]; Safety population) was 10 (3.2) %, the “Pleural effusion, subjects” value ([8]; Safety population) was 4 (1.3) % and the “Pneumonia, subjects” value ([8]; Safety population) was 8 (2.5) %. For the same molecule, the “Any AE (TEAE), subjects” value [8, 17] was 53.7%, the “Favorable Microbiological Outcome at TOC” value (H. influenzae [9]; ME) was 13/15 (86.7) % and the “Clinical Cure Rate at the TOC Visit” value (H. influenzae [9]; ME population) was 13/15 (86.7) %. For the same molecule, the “inhibition of CYP1A1” value (CYP1A1) was “neither ceftaroline fosamil nor ceftaroline inhibits”, the “Favorable Microbiological Outcome at TOC” value (E. coli; ME) was 8/8 (100.0) % and the “Clinical Cure Rate at the TOC Visit” value (E. coli; ME population) was 8/8 (100.0) %. The “Favorable Microbiological Outcome at TOC” value (MDRSP [10]; ME) was 2/2 (100.0) %, the “Clinical Cure Rate at the TOC Visit” value (MDRSP [10]; ME population) was 2/2 (100.0) % and the “Favorable Microbiological Outcome at TOC” value (S. pneumoniae [11]; ME) was 35/39 (89.7) %. The “Clinical Cure Rate at the TOC Visit” value (S. pneumoniae [11]; ME population) was 33/39 (84.6) %, the “inhibition of CYP2B6” value (CYP2B6) was “neither ceftaroline fosamil nor ceftaroline inhibits” and the “Favorable Microbiological Outcome at TOC” value (S. aureus [12]; ME) was 11/15 (73.3) %. For the same molecule, the “Clinical Cure Rate at the TOC Visit” value (S. aureus [12]; ME population) was 10/15 (66.7) %, the “induction of CYP3A4/5” value (CYP3A4/5) was “not inducers” and the “Favorable Microbiological Outcome at TOC” value (S. aureus [13]; ME) was 8/10 (80.0) %. The “Clinical Cure Rate at the TOC Visit” value (S. aureus [13]; ME population) was 8/10 (80.0) %, the “induction of CYP2C19” value (CYP2C19) was “not inducers” and the “inhibition of CYP2C8” value (CYP2C8) was “neither ceftaroline fosamil nor ceftaroline inhibits”. For the same molecule, the “Favorable Microbiological Outcome at TOC” value (MDRSP [14]; ME) was 2/2 (100.0) %, the “Clinical Cure Rate at the TOC Visit” value (MDRSP [14]; ME population) was 2/2 (100.0) % and the “Favorable Microbiological Outcome at TOC” value (S. pneumoniae [15]; ME) was 21/24 (87.5) %. For the same molecule, the “Clinical Cure Rate at the TOC Visit” value (S. pneumoniae [15]; ME population) was 21/24 (87.5) %, the “inhibition of CYP3A4” value (CYP3A4) was “neither ceftaroline fosamil nor ceftaroline inhibits” and the “exposure (Cmax and AUC) with concomitant inhibitors, inducers and substrates of cytochrome P450” value [16] was “did not identify any clinically relevant increases”.
